From patent publication US9815863B2, “Hydrogen bond forming fluoro ketolides for treating diseases” (priority 2010, dated 2017)
In brackets after ≈: the same amount, converted by molar mass.

Experiments:
[1] = test system: E. coli ribosome; experiment: Competition binding with [14C]erythromycin, E. coli ribosome
Protocol: Competition binding studies. Binding of erythromycin to E. coli and S. aureus ribosomes and competition experiments were done by size-exclusion chromatography using Bio-Gel P30 spin columns as described in Xiong, L., Y. Korkhin, and A. S. Mankin. 2005. Binding site of the bridged macrolides in the Escherichia coli ribosome. Antimicrob. Agents Chemother. 49:281-288.
For competition binding experiments, ribosomes (100 nM) were preincubated with 100 nM [^14C]erythromycin (48.8 mCi/mmol; PerkinElmer) in 160 μL of buffer A at 37° C. for 15 min, then at 20° C. for 10 min. Competing antibiotics were added at varying concentrations, and the binding mixture was incubated at 20° C. for 100 min. The reactions were loaded onto the spin columns and the amount of ribosome-associated radioactivity was measured as described above. Binding data were analyzed using Prism software (GraphPad). Cell free transcription-translation assays.

[2] = test system: E. coli ribosomes (23S rRNA); experiment: RNA footprinting (ribosome chemical probing), wild-type E. coli ribosomes; assay type: binding; settings: 100 μM antibiotic
Protocol: (§1) Ribosome chemical probing. rRNA probing was done following standard protocols (Merryman, C., and H. F. Noller. 1998. Footprinting and modification-interference analysis of binding sites on RNA, p. 237-253. In C. W. J. Smith (ed.), RNA:Protein Interactions, A Practical Approach. Oxford University Press, Oxford), with minor modifications. Briefly, 200 nM ribosomes were incubated with 100 μM antibiotic in 50 μL of buffer B (80 mM HEPES-KOH [pH 7.8], 20 mM MgCl2, 100 mM NH4Cl, 1.5 mM dithiothreitol) for 10 min at 37° C., followed by 10 min at 20° C. Modifying reagents (dimethyl sulfate [DMS], kethoxal, or 1-cyclohexyl-3-(2-morpholinoethyl)carbodiimide metho p-toluene sulfonate [CMCT]) were added and the modification reaction was carried out for 10 min at 37° C. After quenching the reaction and ethanol precipitation, rRNA was extracted and the distribution of modified nucleotides was assessed by primer extension.
Interactions of CEM-101 with wild-type E. coli and S. aureus ribosomes in solution. […] 1987. Chloramphenicol, erythromycin, carbomycin and vernamycin B protect overlapping sites in the peptidyl transferase region of 23S ribosomal RNA. Biochimie 69:879-884). Also included in this study was a C3-cladinose cousin of CEM-101, CEM-103, which lacks the C2-linked fluorine atom.

[3] = test system: 2058-dimethylated ribosomes isolated from the S. aureus N315 strain; experiment: RNA footprinting of A2058-dimethylated (Erm-modified) ribosomes from S. aureus N315; assay type: binding; settings: S. aureus N315 ribosomes dimethylated at A2058, drugs at 100 μM
Protocol: as §1
Interaction of CEM-101 with S. aureus ribosomes dimethylated at A2058 by Erm-methyltransferase. Erm-methyltransferase modifies A2058 in 23S rRNA by consecutively adding two methyl groups to the exocyclic amino group of the adenine base. Such modification completely blocks binding of erythromycin and similar macrolides, whereas its effect on binding of ketolides is less clear (Douthwaite, S., L. H. Hansen, and P. Mauvais. 2000. Macrolide-ketolide inhibition of MLS-resistant ribosomes is improved by alternative drug interaction with domain R of 23S rRNA. Mol. Microbiol. 36:183-193; Liu, M., and S. Douthwaite. 2002. Activity of the ketolide telithromycin is refractory to Erm monomethylation of bacterial rRNA. Antimicrob. Agents Chemother. 46:1629-1633). Therefore, interaction of CEM-101 with the ribosomes isolated from a clinical S. aureus strain N315, which carries five chromosomal copies of constitutively expressed ermA gene present in the Tn554 transposon (Kuroda, M., T. Ohta, I. Uchiyama, T. Baba, H. Yuzawa, I. Kobayashi, L. Cui, A. Oguchi, K. Aoki, Y. Nagai, J. Lian, T. Ito, M. Kanamori, H. Matsumaru, A. Maruyama, H. Murakami, A. Hosoyama, Y. Mizutani-Ui, N. K. Takahashi, T. Sawano, R. Inoue, C. Kaito, K. Sekimizu, H. Hirakawa, S. Kuhara, S. Goto, J. Yabuzaki, M. Kanehisa, A. Yamashita, K. Oshima, K. Furuya, C. Yoshino, T. Shiba, M. Hattori, N. Ogasawara, H. Hayashi, and K. Hiramatsu. 2001. Whole genome sequencing of meticillin-resistant Staphylococcus aureacs. Lancet 357:1225-1240) was investigated.
Footprinting analysis was used to test interactions of ketolides (CEM-101 and telithromycin) and cladinose-containing macrolides (CEM-103 and erythromycin) with the 2058-dimethylated ribosomes isolated from the S. aureus N315 strain. Ribosomes were incubated with the drugs (present at 100 μM concentration) and probed by DMS modification. Because dimethylated A2058 blocks progression of reverse transcriptase along the RNA template, a strong reverse transcriptase stop is observed at A2058 on the primer extension gel (Vester, B., and S. Douthwaite. 1994. Domain V of 23S rRNA contains all the structural elements necessary for recognition by the ErmE methyltransferase. J. Bacteriol. 176:6999-7004; Zhong, P., Z. Cao, R. Hammond, Y. Chen, J. Beyer, V. D. Shortridge, L. Y. Phan, S. Pratt, J. Capobianco, K. A. Reich, R. K. Flamm, Y. S. Or, and L. Katz. 1999. Induction of ribosome methylation in MLS-resistant Streptococcus pneumoniae by macrolides and ketolides. Microb. Drug Resist. 5:183-188). Therefore, it is impossible to use footprinting to evaluate interactions of macrolides with this position in the S. aureus N315 ribosomes. […]

[4] = test system: Streptococcus pneumoniae Pen^S, Tel^S, Mac^S; experiment: MIC against streptococci clinical isolates (Table 3); assay type: cell-based; settings: Streptococcus pneumoniae, 10 strains
[5] = test system: Streptococcus pyogenes Tel^S, Mac^S; experiment: as above; assay type: cell-based; settings: Streptococcus pyogenes, 10 strains
[6] = test system: Streptococcus pyogenes Tel^R, Mac^R; experiment: as above; assay type: cell-based; settings: Streptococcus pyogenes

## CC[C@H]1OC(=O)[C@@](C)(F)C(=O)[C@H](C)[C@@H](O[C@@H]2O[C@H](C)C[C@H](N(C)C)[C@H]2O)[C@](C)(OC)C[C@@H](C)C(=O)[C@H](C)[C@H]2N(CCCCn3cc(-c4cccc(N)c4)nn3)C(=O)O[C@]12C [CEM-101]
[1]; E. coli ribosome, resulting from competition IC50
  Kd: 62 ± 3 nM
[1]; competition with 100 nM [14C]erythromycin, 100 nM E. coli ribosomes, read-out: IC50 of displacement of erythromycin
  IC50: 155 ± 8 nM
[2]; E. coli ribosomes
  Protection of A752 from DMS modification: strongly protects
[2]; E. coli wild-type ribosomes
  Protection of A2058 and A2059 in domain V of 23S rRNA from modification with DMS: protect
[3]
  Protection of A2059 from DMS modification (binding to Erm-modified ribosome): protection of A2059 from DMS modification
  Protection of G2505 from kethoxal modification: partially protected
  Protection of U2609 from modification with CMCT: fully protected
[4]; read-out: MIC50
  MIC50: 0.03 µg/mL (≈ 0.0355 µM)
[4]; read-out: MIC90
  MIC90: 0.03 µg/mL (≈ 0.0355 µM)
[5]; read-out: MIC50
  MIC50: 0.03 µg/mL (≈ 0.0355 µM)
[5]; read-out: MIC90
  MIC90: 0.03 µg/mL (≈ 0.0355 µM)
[6]
  MIC50: 0.125 µg/mL (≈ 0.148 µM)
[6]; S. pyogenes Tel^R, Mac^R, 9 strains (8 ermB, 1 ermA, constitutive), read-out: MIC90
  MIC90: 0.25 µg/mL (≈ 0.296 µM)
